One series concerns S. aureus 101. The experiment in a line: MIC, standard panel of Gram-positive and Gram-negative strains (Example 2). It counts as cell-based. Particulars: Staphylococcus aureus.
Another series has as its system E. faecalis 29212. The series is described as above. It counts as cell-based, Enterococcus faecalis. Particulars: Enterococcus faecalis, 29212; read-out: MIC E. faecalis 29212.
In another series the test system is E. cloacae 13047. The description is as above. It is filed as cell-based, Enterobacter cloacae. To be noted: Enterobacter cloacae, 13047; read-out: MIC E. cloacae 13047.
The next series has as its system A. baumanii 19606. The description is as above. Particulars: Acinetobacter baumannii. It is filed as cell-based.
For another series, the system named is S. aureus SMITH. Description: MIC, panel of quinolone-resistant strains (Example 2). It is filed as cell-based. Particulars: Staphylococcus aureus; CIP R; read-out: MIC S. aureus SMITH.
Another series deals with S. pneumoniae 49619. The series is described as above. To be noted: Streptococcus pneumoniae, 49619; LEV S; read-out: MIC S. pneumoniae 49619. It counts as cell-based, Streptococcus pneumoniae.
A short description of the next series: Cytotoxicity (Example 7). It counts as cell-based. Particulars: human, HEPG2 V1 cells. The protocol: The 4-oxoquinolizine compounds of the invention preferably have a low cytotoxicity against human cells. […].
Cytotoxicity was determined for the instant 4-oxoquinolizine compounds which show low cytotoxicity. (see Table 17 following). […]

The subject of a further series is A. baumannii ATCC 19606. The experiment in a line: Preliminary MBC without and with sub-inhibitory polymyxin B (Example 4). It is filed as cell-based, Acinetobacter baumannii. To be noted: Acinetobacter baumannii.
Series [1] relates to Acinetobacter sp. (H064200250). The series is described as above. It is filed as cell-based. Particulars: Acinetobacter, preliminary MBC. Summed up: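 Bactericidal endpoint scored visually on plates incubated at 37° C (18-20 hours): the lowest concentration where growth fell about 90% versus the positive control, generally leaving one colony or none.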
Another series relates to A. baumannii A489. The series is described as above. To be noted: Acinetobacter baumannii, preliminary MBC. It is filed as cell-based, Acinetobacter baumannii.
Another series deals with A. baumannii A14. The series is described as above. To be noted: A. baumannii A14, preliminary MBC, 1st experiment; for MBC +0.06 μg/ml PB: +0.06 μg/ml polymyxin B. It counts as cell-based, Acinetobacter baumannii.
Another series has as its system S. aureus 25923 HS. Description: MIC, standard panel of Gram-positive and Gram-negative strains (Example 2). It is filed as cell-based. To be noted: Staphylococcus aureus, read-out: MIC S. aureus 25923 HS.
Series [2] relates to strains of A. baumannii and one strain of Acinetobacter sp. Description: MIC without polymyxin B, panel of Acinetobacter strains (Example 4). It is filed as cell-based. Particulars: Acinetobacter baumannii, ATCC19606, read-out: MIC range without PB Oct. 1, 2006 n = 8, 1st experiment; resistant strains, ATCC 19606, A329, A390 and A473 not taken.
The mark [3] stands for this setting: ATCC19606, A. baumannii ATCC 19606, +0.06 μg/ml PB, 2nd experiment, read-out: MBC.
Setting [4] is: ATCC19606, read-out: MBC +0.06 μg/ml PB, A. baumannii ATCC 19606, +0.06 μg/ml polymyxin B, 1st experiment.
Where [5] appears, read: Acinetobacter spp. H064200250 (OXA51), +[…] PB, 2nd experiment, read-out: MBC.
The mark [6] stands for this setting: read-out: MBC +[…] PB, Acinetobacter spp. H064200250, +[…] polymyxin B, 1st experiment.
Setting [7] is: A489, A. baumannii A489, +[…] PB, 2nd experiment, read-out: MBC.
[8] abbreviates: A489, read-out: MBC +[…] PB, A. baumannii A489, +[…] polymyxin B, 1st experiment.

≈ marks a conversion by molar mass, not a printed value. Read-outs that look alike come from different tables or passages of the source. A value given as a limit tells only on which side of the number the result lay.

One may read the MIC as the least concentration at which growth counts as inhibited. What is called IC50 is the midpoint of a concentration-inhibition curve. For `Cc1c(-c2cc(Cl)c(N)c(Cl)c2)ccn2c(=O)c(C(=O)O)cc(C3CC3)c12` [Compound 3, 8-(3,5-dichloro-4-amino-phenyl)-1-cyclopropyl-9-methyl-4-oxo-quinolizine-3-carboxylic acid], the MIC came out at 0.06 µg/mL (≈ 0.149 µM) against S. aureus 101; 0.016 µg/mL (≈ 0.0397 µM) in the series on E. faecalis 29212; 0.5 µg/mL (≈ 1.24 µM) in the series on E. cloacae 13047; 0.25 µg/mL (≈ 0.62 µM) against A. baumanii 19606; 0.5 µg/mL (≈ 1.24 µM) with S. aureus SMITH; 0.5 µg/mL (≈ 1.24 µM) in the series on S. pneumoniae 49619. Besides, in the series “Cytotoxicity (Example 7)”, the IC50 was 50 µM. The MBC in the series with A. baumannii ATCC 19606 (setting [3]) was no more than 0.03 µg/mL; in the series on A. baumannii ATCC 19606 (setting [4]) it was no more than 0.03 µg/mL; in series [1] (setting [5]), 0.06 µg/mL (≈ 0.149 µM); in series [1] (setting [6]) it was 0.5 µg/mL (≈ 1.24 µM); in the series with A. baumannii A489 (setting [7]) it was no more than 0.03 µg/mL; in the series on A. baumannii A489 (setting [8]), 0.06 µg/mL (≈ 0.149 µM). Further, the MBC in the series on A. baumannii A14 (Acinetobacter baumannii, without polymyxin B, read-out: MBC without PB) was greater than 32 µg/mL. For the same molecule, in the series with A. baumannii A14, the “MBC +0.06 μg/ml PB” value is 1 µg/mL.
As to `Cc1c(-c2ccc(N)cc2)ccn2c(=O)c(C(=O)O)cc(C3CC3)c12` [Compound 8, 8-(4-amino-phenyl)-1-cyclopropyl-9-methyl-4-oxo-quinolizine-3-carboxylic acid], the MIC was 0.25 µg/mL (≈ 0.748 µM) with S. aureus 25923 HS; 0.5 µg/mL (≈ 1.5 µM) with S. aureus 101; 0.03 µg/mL (≈ 0.0897 µM) in the series on E. faecalis 29212; 0.25 µg/mL (≈ 0.748 µM) with E. cloacae 13047; 0.125 µg/mL (≈ 0.374 µM) against A. baumanii 19606; 2 to 32 µg/mL (≈ 5.98 to 95.7 µM) in series [2]. The IC50 in the series “Cytotoxicity (Example 7)” worked out at 90 µM. Besides, the MBC with A. baumannii ATCC 19606 (setting [3]) is no more than 0.03 µg/mL; in the series with A. baumannii ATCC 19606 (setting [4]), no more than 0.03 µg/mL; in series [1] (setting [5]), 0.125 µg/mL (≈ 0.374 µM); in series [1] (setting [6]), 0.5 µg/mL (≈ 1.5 µM); in the series with A. baumannii A489 (setting [7]), no more than 0.03 µg/mL; with A. baumannii A489 (setting [8]) it was no more than 0.03 µg/mL. In addition, the “MBC +0.06 μg/ml PB” value in the series with A. baumannii A14 was 1 µg/mL.

Source of the values: patent publication US20190105367A1, “ANTIMICROBIAL 4-OXOQUINOLIZINES” (Emergent Product Development Gaithersburg Inc., priority 2011, published 2019).
